Experimental findings from US11168319B1, “Plant cell culture” (Inari Agriculture Technology, Inc., priority 2017, dated 2021) are described below.

Each structure is given as a SMILES string. Where two headings read alike, the source gives them in different places.

The subject of one experiment is maize B73 protoplasts. The following applies: for Viability (%): 1 mM GSH; for protoplast viability: 288 hours. The protocol:
(§1) Separate suspensions of maize B73 and A188 protoplasts (2×10^5 cells per milliliter) were prepared in YPIM B-liquid medium containing various combinations of the added salts calcium chloride, potassium ascorbate, and magnesium chloride or magnesium sulfate. One-half milliliter aliquots of the suspensions were dispensed into a 24-well microtiter plate in the arrangement shown in Table 2, which lists the concentrations of calcium chloride (“Ca”), potassium ascorbate (“A”), and magnesium chloride (“MgCl2”) or magnesium sulfate (“MgSO4”) in millimolar values.
(§2) Viability was judged by Evans blue staining and visualization under a light microscope.
Separate suspensions of maize B73, winter wheat, soy, and strawberry protoplasts (2×10^5 cells per milliliter) were prepared in YPIM B-liquid medium containing calcium chloride at 0, 50, or 100 millimolar. One-half milliliter aliquots of the suspensions were dispensed into a 24-well microtiter plate.
Viability at day 8 of culture was judged by visualization under a light microscope.
Viability at day 13 was judged by Evans blue staining and visualization under a light microscope.
Separate suspensions of maize B73 protoplasts (2×10^5 cells per milliliter) were prepared in PIM B-liquid medium (identical to YPIM B-medium except with the 6-benzylaminopurine substituted with 0.022 milligrams/L thidiazuron) containing calcium chloride added at 0, 5, 20, 40, 70, or 100 millimolar. One-half milliliter aliquots of the suspensions were dispensed into a 24-well microtiter plate.
Viability was judged by visualization under a light microscope at day 7 and at day 14 of culture.
(§3) Separate suspensions of maize B73 and A188 protoplasts (2×10^5 cells per milliliter) were prepared in PIM B-liquid medium (identical to YPIM B-medium except with the 6-benzylaminopurine substituted with 0.022 milligrams/L thidiazuron) containing calcium chloride added at 0 or 50 millimolar. One-half milliliter aliquots of the suspensions were dispensed into a 24-well microtiter plate.
(§4) Viability was judged by visualization under a light microscope.
(§5) Separate suspensions of maize B73 and A188 protoplasts (2×10^5 cells per milliliter) were prepared in YPIM B-liquid medium containing (a) calcium chloride added at 100 millimolar, or (b) 1 millimolar glutathione, or (c) no added calcium or glutathione. One-milliliter aliquots of the suspensions were dispensed into a 24-well microtiter plate. At 16, 40, 64, and 136 hours of culture, 50-microliter samples were taken for hemocytometer analysis from each well; for the plates containing maize A188 protoplasts, parallel 50-microliter samples were taken from a replicate well at 16, 40, and 64 hours of culture for quantification using a Cellometer cell counter (Nexcelom Bioscience LLC, Lawrence, Mass.).
(§6) Viability was determined by Evans blue staining and quantification using a hemocytometer. Under conditions with high concentrations of calcium, Evans blue can create precipitates that interfere with cell counting; to prevent this, 5 microliters of an EDTA solution was added to the samples from the wells containing 100 millimolar calcium chloride immediately prior to staining.

For a further experiment, the system named is maize A188 protoplasts. Briefly: Protoplast viability (Evans blue staining / light microscope / hemocytometer). It is filed as cell-based. The following applies: for Viability (%): 1 mM GSH; for protoplast viability: 288 hours. The protocol: as §1, §2
Separate suspensions of maize A188 protoplasts (2×10^5 cells per milliliter) were prepared in YPIM B-liquid medium containing calcium chloride at 0 or 50 millimolar. One-half milliliter aliquots of the suspensions were dispensed into a 24-well microtiter plate.
as §4, §3, §5, §6

Experiment [1] concerns maize (Zea mays) alcohol dehydrogenase ADH1 gene. The experiment is described as follows: HDR/NHEJ editing of endogenous gene in maize protoplasts (PCR, KpnI/NdeI). In kind it is cell-based. The following applies: 0.5 mM GSH. The protocol: A ribonucleoprotein (RNP) was prepared with Cas9 nuclease (Aldevron, Fargo, N. Dak.) and a guide RNA complex designed to edit the first ADH1 exon, consisting of a crRNA (ZmADH1-B) with the sequence
Integrated DNA Technologies, Coralville, Iowa); the donor ssDNA contained three phosphorothioate linkages at each terminus (i.e., the three linkages between the most distal four bases on either end of the strand), and contained a KpnI restriction enzyme digestion site at nucleotide positions 67-72 (shown as underlined text). A double-stranded DNA (purchased from Integrated DNA Technologies, Coralville, Iowa) was designed with a forward strand having the sequence
wherein each strand was phosphorylated on the 5′ end and contained two phosphorothioate linkages at each terminus (i.e., the two linkages between the most distal three bases on either end of the strand); this contained an NdeI restriction site located at nucleotide positions 16-21 of the forward strand (SEQ ID NO:16), shown as underlined font. Insertion of this sequence into the first exon of the target gene ADH1 serves as a proxy readout for efficiency of the NHEJ pathway (i.e., non-homologous repair of the expected DSB).
(§7) Transfection procedures were essentially as described in Example 13. In a first experiment, cells were treated with the HDR ssDNA donor containing a Kpn1 restriction site, or with no donor polynucleotide. After transfection with the editing reagents, the washed and pelleted cells were then resuspended in PIM containing 50 millimolar CaCl2, and then plated in 6-well plates coated with 5% calf serum. The plates were sealed with Parafilm™ and allowed to incubate at 37 degrees Celsius for 1 hour. For the hypoxia treatment, the Parafilm™ was removed and the plates were then placed in a hypoxia chamber having about 5% oxygen by volume at 26 degrees Celsius in the dark. For normoxia treatment, the Parafilm™ was kept in place and the plates were incubated at 26 degrees Celsius in a growth chamber in the dark. Cells were harvested 48 hours and HDR editing efficacy was quantitated by PCR analysis using Phusion™ Flash PCR (Thermo Fisher Scientific, Waltham, Mass.).
as §7, with “In” for “Transfection procedures were essentially as described in Example 13. In”, “second” for “first”, “Kpn1 restriction site, or with the NHEJ dsDNA containing an NdeI” for “Kpn1”, “CaCl2, with or without 0.5 millimolar glutathione (GSH),” for “CaCl2,”, “subjected to” for “HDR editing efficacy was quantitated by”

The test system of another experiment is maize B104 protoplasts. Briefly: Cell division rate by EdU staining (% EdU). The following applies: for EdU staining mean %: Ca^2+ 100 mM, glutathione 0.5 mM, 90 h.
The test system of experiment [2] is maize B73 and A188 protoplasts. Briefly: Protoplast viability, statements pooled for both maize lines. It is filed as cell-based. The following applies: after 288 hours, various ascorbate concentrations (0.1-1 mM). The protocol: as §1, §2
as §5, with “One-milliliter aliquots of the suspensions were dispensed into a 24-well microtiter plate.” left out
Viability was determined by Evans blue staining and quantification using a hemocytometer. […]

Where [3] appears, read: 100 mM added salt, YPIM B- medium.

Protocol for maize B104 protoplasts: Cell division rates are expressed as “% EdU” (percentage of cells displaying the EdU signal relative to the total cell count).
Cell division was monitored, e.g., by microscopic observations. […] Evidence of cell division was observed by microscopy and included increased cell or protoplast size, bulging membranes, and large groups of organelles occupying the separating daughter cells. Quantification of cell division was carried out using fluorescent staining. […] Cells that are the result of cellular division in the presence of EdU were identified by the resulting green fluorescent signal, which can be quantified by various means, e.g., with a microplate reader, cell counter, or cell sorter.
In a separate experiment, maize HiIIA protoplasts were grown in 24-well plates using YPIM B-liquid medium containing 100 millimolar Ca^2+ and 20 micromolar EdU. Identical plates were incubated under hypoxia (5% oxygen by volume, 26 degrees Celsius, 80% relative humidity) or ambient oxygen (21% oxygen by volume, 26 degrees Celsius, 80% relative humidity). Entire wells (250 microliters) were taken for EdU detection at four time points. The contents of each well was centrifuged and the pellet subjected to the Click-iT™ EdU Alexa Fluor™ 488 Imaging Kit (catalogue number C10337, Thermo Fisher Scientific, Waltham, Mass.) fluorescent labelling protocol. The labelled protoplasts were resuspended in YPIM B-medium and samples analyzed on a Nexcelom Cellometer (Nexcelom Bioscience LLC, Lawrence, Mass.). This assay was developed to detect the EdU signal from the nucleus of a cell resulting from cell division, as well as the fluorescent signal from chloroplasts as a measure of total cell count.
Entire wells (1000 microliters) were taken for EdU detection at three time points; analyses were of duplicate samples of each of two replicate wells.

On to `N[C@@H](CCC(=O)N[C@@H](CS)C(=O)NCC(=O)O)C(=O)O` [glutathione], for which the “Viability (%)” value is recorded as 90% in the experiment on maize B73 protoplasts (0 hours, hemocytometer); 77% with maize B73 protoplasts (16 hours); 72% in the experiment on maize B73 protoplasts (40 hours); 48% in the experiment with maize B73 protoplasts (64 hours); 24% in the experiment with maize B73 protoplasts (136 hours); 90% in the experiment with maize A188 protoplasts (0 hours, hemocytometer). The “Viability (%)” value with maize A188 protoplasts (16 hours) was determined as 69%; in the experiment with maize A188 protoplasts (40 hours), 50%; with maize A188 protoplasts (64 hours) it was 50%; in the experiment with maize A188 protoplasts (136 hours), 42%. Besides, the “% KpnI (HDR)” value in experiment [1] (editing reagents: Null) turned out to be 0.00%; in experiment [1] (editing reagents: RNP only), 0.00%; in experiment [1] (editing reagents: RNP plus HDR donor) it was 5.0%; in experiment [1] (editing reagents: RNP plus HDR donor, listed as GSH) it was 5.00%. Further, the “% NdeI (NHEJ)” value in experiment [1] (editing reagents: Null) is reported as 0.00%; in experiment [1] (editing reagents: RNP only), 0.00%; in experiment [1] (editing reagents: RNP plus NHEJ donor) it was “about 15%”; in experiment [1] (editing reagents: RNP plus NHEJ donor, listed as GSH), 15.01%. Besides, the “EdU staining mean %” value with maize B104 protoplasts (O2 5%) is reported as 18.4%; with maize B104 protoplasts (O2 21%), 16.9%. In the experiment on maize B104 protoplasts (addition of 0.5 millimolar glutathione, hypoxic conditions, 100 mM Ca^2+), the “change in rate of cell division (% EdU)” value was “little change”. Further, in the experiment with maize B104 protoplasts (addition of 0.5 millimolar glutathione, normal atmospheric oxygen, 100 mM Ca^2+), the “increase in rate of cell division (% EdU)” value is “about 2 fold”.
Take `[Cl-].[Cl-].[Mg+2]` [magnesium chloride]: the protoplast viability result in the experiment on maize B73 protoplasts (setting [3]) is recorded as “much higher viability than any well”; in the experiment with maize A188 protoplasts (setting [3]) it was “about 70%”; in the experiment on plant protoplasts (between or about 50 to about 100 millimolar, several titration experiments) it was “greatest improvement in protoplast viability”. The results for the plant protoplast viability result in the experiment with plant protoplasts (about 40 millimolar or about 50 millimolar) and with plant protoplasts (culture medium contains about 30 millimolar) were “Even higher levels of plant protoplast viability” and “Beneficial effects”, respectively.
Regarding `O=S(=O)([O-])[O-].[Mg+2]` [magnesium sulfate], the protoplast viability entry in the experiment with maize B73 protoplasts (50 or 100 mM) is “only a modest improvement”; with maize A188 protoplasts (50 mM added salt, YPIM B- medium) it was 30-40%; with maize A188 protoplasts (50 or 100 mM), “only a modest improvement”.
Turning to `O=C1O[C@H]([C@@H](O)CO)C([O-])=C1O.[K+]` [potassium ascorbate], the protoplast viability result in the experiment with maize A188 protoplasts (0.2 millimolar and above added to wells with added calcium) was “slightly decrease viability”. For the same compound, the viability result in experiment [2] was “only slight effects”.
